PubChem BioAssay (NCI)
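The compound was tested at five concentrations on cells cultured in 96-well plates, with a 48-hour exposure period. At the TGI there is no net growth.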

Key:
Test in all cases: inhibition of tumour cell growth, NCI panel, 48 h
MDA-N = system: MDA-N
RPMI-8226 leukemia = system: RPMI-8226 leukemia
OVCAR-3 ovarian = system: OVCAR-3 ovarian
MDA-MB-231 breast = system: MDA-MB-231 breast
DU-145 prostate = system: DU-145 prostate
OVCAR-8 ovarian = system: OVCAR-8 ovarian
TK-10 renal = system: TK-10 renal
COLO 205 colon = system: COLO 205 colon
MDA-MB-435 = system: MDA-MB-435
MOLT-4 leukemia = system: MOLT-4 leukemia

Structure (SMILES) | TGI (MDA-N) | TGI (RPMI-8226 leukemia) | TGI (OVCAR-3 ovarian) | TGI (MDA-MB-231 breast) | TGI (DU-145 prostate) | TGI (OVCAR-8 ovarian) | TGI (TK-10 renal) | TGI (COLO 205 colon) | TGI (MDA-MB-435) | TGI (MOLT-4 leukemia)
O=C1NC(=O)C(c2c[nH]c3ccccc23)=C1c1cnc[nH]1 | > 100 µM | > 100 µM | > 100 µM | > 100 µM | > 100 µM | > 100 µM | > 100 µM | > 100 µM | > 100 µM | > 100 µM
COc1cc(C2SCC(=O)N2c2ccccn2)cc(OC)c1OC (stereo not given) | 41.6 µM | > 100 µM | > 100 µM | > 100 µM | > 100 µM | > 100 µM | > 100 µM | > 100 µM | 77.6 µM | > 100 µM
CC(C)(C)NC(NC(C)(C)C)=C(/C=C(/Cl)[N+](=O)[O-])[N+](=O)[O-] | 59.5 µM | > 100 µM | 49.7 µM | > 100 µM | > 100 µM | > 100 µM | > 100 µM | 60.3 µM | 38.3 µM | > 100 µM
CC(C)(Cl)C(Br)CCC(C)(Cl)C(Br)CBr (stereo not given) | 81.9 µM | 42.2 µM | 41.9 µM | 47.2 µM | 85.2 µM | > 100 µM | 99.6 µM | 33.8 µM | 73.6 µM | > 100 µM
Nc1ccc(-c2nc3cc(F)ccc3s2)cc1Cl | > 100 µM | > 100 µM | 45.6 µM | > 100 µM | > 100 µM | > 100 µM | 0.176 µM | > 100 µM | > 100 µM | > 100 µM
CC(=O)Nc1ccc(N2C(=O)/C(=C\c3cccc(Oc4ccccc4)c3)S(=O)(=O)C2c2ccccc2)cc1 (stereo not given) | 95.3 µM | 66.8 µM | > 100 µM | > 100 µM | > 100 µM | > 100 µM | > 100 µM | > 100 µM | > 100 µM | 98.4 µM
CC(=O)N(C)c1ccc(Nc2cc(C)[nH]c3ccc4ncnc4c23)cc1 | 23.9 µM | 82.7 µM | 27.5 µM | 30.4 µM | 22.4 µM | 21.5 µM | 48.3 µM | 16 µM | 23.3 µM | 13.7 µM
CN(Cc1cnc2nc(N)nc(N)c2n1)c1ccc(C(=O)NC(CCC(=O)NCCC(P(=O)(O)O)P(=O)(O)O)C(=O)O)cc1 (stereo not given) | > 100 µM | > 100 µM | > 100 µM | > 100 µM | > 100 µM | > 100 µM | > 100 µM | > 100 µM | > 100 µM | > 100 µM
COc1ccccc1/C(=N\OCCC(=O)O)c1cccs1 | > 100 µM | > 100 µM | > 100 µM | > 100 µM | > 100 µM | > 100 µM | > 100 µM | > 100 µM | > 100 µM | > 100 µM
CC(=O)c1ccc(NCc2cc(O)ccc2O)cc1 | 43.5 µM | > 100 µM | 19.8 µM | 73.8 µM | 58 µM | 88.1 µM | 29 µM | 43.8 µM | 58.6 µM | > 100 µM
Cc1cc(C)n2nc3nc(N)c(C#N)c(-c4ccccc4)c3c2n1 | > 100 µM | > 100 µM | > 100 µM | > 100 µM | > 100 µM | > 100 µM | > 100 µM | > 100 µM | > 100 µM | > 100 µM
CC(C)(C)OC(=O)N1CCc2[nH][nH]c(=O)c2C1 | > 100 µM | > 100 µM | > 100 µM | > 100 µM | > 100 µM | > 100 µM | > 100 µM | > 100 µM | > 100 µM | > 100 µM
OCCCCCCCCCCCOc1ccc(C2OCC3(CO2)COC(c2ccc(OCCCCCCCCCCCO)cc2)OC3)cc1 (stereo not given) | > 50 µM | > 50 µM | > 50 µM | > 50 µM | > 50 µM | > 50 µM | > 50 µM | > 50 µM | > 50 µM | > 50 µM
CC1=CC(C)C/C=C/C2C3OC3(C)C(C)C3C(Cc4c[nH]c5ccccc45)NC(=O)C23C(=O)C=CC(=O)C1O (stereo not given) | 22.6 µM | 5.06 µM | 12.1 µM | 16.9 µM | 27.6 µM | 54.3 µM | 3.39 µM | 2 µM | 46.6 µM | 5.2 µM
CC(C)CC1C(=O)NCCC(NC(=O)C(Cc2ccc(OC(C)(C)C)cc2)NC(=O)OC(C)(C)C)C(=O)NC(Cc2ccccc2)C(=O)NC(Cc2ccccc2)NC1=O (stereo not given) | > 100 µM | 54.4 µM | 19.9 µM | 19.9 µM | > 100 µM | 20.6 µM | 33.8 µM | 11.7 µM | 12.2 µM | 3.48 µM
CC(=O)O[C@H]1C[C@H]2[C@@H](OC(C)=O)/C=C3\C[C@](C)(C(=O)[C@H](O)C(=C1C)C2(C)C)[C@@H](O)C[C@@H]3OC(=O)[C@H](O)[C@H](c1ccccc1)N(C)C | > 100 µM | > 100 µM | > 100 µM | > 100 µM | > 100 µM | > 100 µM | > 100 µM | > 100 µM | > 100 µM | > 100 µM
O=C1C2CC=CCC2C(=O)N1n1c(Cc2ccc(Cl)cc2)n[nH]c1=O (stereo not given) | > 100 µM | > 100 µM | > 100 µM | > 100 µM | > 100 µM | > 100 µM | > 100 µM | > 100 µM | > 100 µM | > 100 µM
